Source: PubChem BioAssay (NCI)
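Interpolation was linear, between the two tested concentrations surrounding the appropriate level; five concentrations were tested over 48 hours in 96-well plates. Abbreviation: GI50, concentration required for 50% inhibition of growth. TGI denotes the concentration required for complete inhibition of growth.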

Tests used:
Assay in all cases: NCI tumour cell line growth inhibition, 48 h
SK-OV-3 ovarian = system: SK-OV-3 ovarian
HS 578T breast = system: HS 578T breast
COLO 205 colon = system: COLO 205 colon
A549 NSCLC = system: A549 NSCLC
KM12 colon = system: KM12 colon
DU-145 prostate = system: DU-145 prostate
SK-MEL-5 melanoma = system: SK-MEL-5 melanoma
UO-31 renal = system: UO-31 renal
SK-MEL-2 melanoma = system: SK-MEL-2 melanoma
RPMI-8226 leukemia = system: RPMI-8226 leukemia
SN12C renal = system: SN12C renal
PC-3 prostate = system: PC-3 prostate
HCT-116 colon = system: HCT-116 colon
SF-268 CNS = system: SF-268 CNS
HOP-62 NSCLC = system: HOP-62 NSCLC
MCF7 breast = system: MCF7 breast
786-0 renal = system: 786-0 renal
SK-MEL-28 melanoma = system: SK-MEL-28 melanoma
SF-539 CNS = system: SF-539 CNS
MDA-MB-231 breast = system: MDA-MB-231 breast
MDA-MB-435 = system: MDA-MB-435
IGROV1 ovarian = system: IGROV1 ovarian
NCI/ADR-RES ovarian = system: NCI/ADR-RES ovarian
TK-10 renal = system: TK-10 renal
U251 CNS = system: U251 CNS
T-47D breast = system: T-47D breast
HL-60(TB) leukemia = system: HL-60(TB) leukemia
HOP-92 NSCLC = system: HOP-92 NSCLC
M14 melanoma = system: M14 melanoma
OVCAR-8 ovarian = system: OVCAR-8 ovarian
SF-295 CNS = system: SF-295 CNS
LOX IMVI melanoma = system: LOX IMVI melanoma
HCT-15 colon = system: HCT-15 colon
OVCAR-5 ovarian = system: OVCAR-5 ovarian
SNB-75 CNS = system: SNB-75 CNS
HCC-2998 colon = system: HCC-2998 colon
BT-549 breast = system: BT-549 breast
RXF 393 renal = system: RXF 393 renal
MALME-3M melanoma = system: MALME-3M melanoma
A498 renal = system: A498 renal
SNB-19 CNS = system: SNB-19 CNS
NCI-H23 lung = system: NCI-H23 lung
HT29 colon = system: HT29 colon
CAKI-1 renal = system: CAKI-1 renal
EKVX NSCLC = system: EKVX NSCLC
OVCAR-4 ovarian = system: OVCAR-4 ovarian
ACHN renal = system: ACHN renal
CCRF-CEM leukemia = system: CCRF-CEM leukemia
UACC-62 melanoma = system: UACC-62 melanoma
SW-620 colon = system: SW-620 colon
NCI-H226 lung = system: NCI-H226 lung
NCI-H522 lung = system: NCI-H522 lung
NCI-H460 lung = system: NCI-H460 lung
SR leukemia = system: SR leukemia
OVCAR-3 ovarian = system: OVCAR-3 ovarian
K-562 leukemia = system: K-562 leukemia
MOLT-4 leukemia = system: MOLT-4 leukemia
UACC-257 melanoma = system: UACC-257 melanoma

C=C1C(=O)O[C@H]2[C@H]1CC/C(COC(=O)/C=C\C(=O)NCc1ccc(Cn3c(=O)sn(CCCI)c3=O)cc1)=C\CC[C@@]1(C)O[C@@H]21
GI50 (SK-OV-3 ovarian): 5080 nM | TGI (SK-OV-3 ovarian): 11400 nM | GI50 (HS 578T breast): 851 nM | TGI (HS 578T breast): 2390 nM | GI50 (COLO 205 colon): 568 nM | TGI (COLO 205 colon): 1510 nM | GI50 (A549 NSCLC): 1050 nM | TGI (A549 NSCLC): 2960 nM | GI50 (KM12 colon): 866 nM | TGI (KM12 colon): 1730 nM | GI50 (DU-145 prostate): 654 nM | TGI (DU-145 prostate): 1310 nM | GI50 (SK-MEL-5 melanoma): 813 nM | TGI (SK-MEL-5 melanoma): 1490 nM | GI50 (UO-31 renal): 316 nM | TGI (UO-31 renal): 1020 nM | GI50 (SK-MEL-2 melanoma): 919 nM | TGI (SK-MEL-2 melanoma): 1960 nM | GI50 (RPMI-8226 leukemia): 196 nM | TGI (RPMI-8226 leukemia): 1210 nM | GI50 (SN12C renal): 643 nM | TGI (SN12C renal): 1500 nM | GI50 (PC-3 prostate): 610 nM | TGI (PC-3 prostate): 1440 nM | GI50 (HCT-116 colon): 193 nM | TGI (HCT-116 colon): 770 nM | GI50 (SF-268 CNS): 740 nM | TGI (SF-268 CNS): 1440 nM | GI50 (HOP-62 NSCLC): 1510 nM | TGI (HOP-62 NSCLC): 7680 nM | GI50 (MCF7 breast): 282 nM | TGI (MCF7 breast): 1090 nM | GI50 (786-0 renal): 770 nM | TGI (786-0 renal): 1510 nM | GI50 (SK-MEL-28 melanoma): 800 nM | TGI (SK-MEL-28 melanoma): 1500 nM | GI50 (SF-539 CNS): 689 nM | TGI (SF-539 CNS): 1340 nM | GI50 (MDA-MB-231 breast): 593 nM | TGI (MDA-MB-231 breast): 1340 nM | GI50 (MDA-MB-435): 605 nM | TGI (MDA-MB-435): 1250 nM | GI50 (IGROV1 ovarian): 368 nM | TGI (IGROV1 ovarian): 1110 nM | GI50 (NCI/ADR-RES ovarian): 988 nM | TGI (NCI/ADR-RES ovarian): 3610 nM | GI50 (TK-10 renal): 758 nM | TGI (TK-10 renal): 1520 nM | GI50 (U251 CNS): 871 nM | TGI (U251 CNS): 1950 nM | GI50 (T-47D breast): 801 nM | TGI (T-47D breast): 2170 nM | GI50 (HL-60(TB) leukemia): 575 nM | TGI (HL-60(TB) leukemia): 2260 nM | GI50 (HOP-92 NSCLC): 580 nM | TGI (HOP-92 NSCLC): 1310 nM | GI50 (M14 melanoma): 637 nM | TGI (M14 melanoma): 1440 nM | GI50 (OVCAR-8 ovarian): 771 nM | TGI (OVCAR-8 ovarian): 3410 nM | GI50 (SF-295 CNS): 2190 nM | TGI (SF-295 CNS): 8060 nM | GI50 (LOX IMVI melanoma): 291 nM | TGI (LOX IMVI melanoma): 983 nM | GI50 (HCT-15 colon): 355 nM | TGI (HCT-15 colon): 1120 nM | GI50 (OVCAR-5 ovarian): 752 nM | TGI (OVCAR-5 ovarian): 1590 nM | GI50 (SNB-75 CNS): 442 nM | TGI (SNB-75 CNS): 1160 nM | GI50 (HCC-2998 colon): 909 nM | TGI (HCC-2998 colon): 1660 nM | GI50 (BT-549 breast): 622 nM | TGI (BT-549 breast): 1450 nM | GI50 (RXF 393 renal): 423 nM | TGI (RXF 393 renal): 1110 nM | GI50 (MALME-3M melanoma): 707 nM | TGI (MALME-3M melanoma): 1420 nM | GI50 (A498 renal): 831 nM | TGI (A498 renal): 1550 nM | GI50 (SNB-19 CNS): 850 nM | TGI (SNB-19 CNS): 1690 nM | GI50 (NCI-H23 lung): 788 nM | TGI (NCI-H23 lung): 1530 nM | GI50 (HT29 colon): 547 nM | TGI (HT29 colon): 2460 nM | GI50 (CAKI-1 renal): 298 nM | TGI (CAKI-1 renal): 999 nM | GI50 (EKVX NSCLC): 729 nM | TGI (EKVX NSCLC): 1440 nM | GI50 (OVCAR-4 ovarian): 603 nM | TGI (OVCAR-4 ovarian): 1290 nM | GI50 (ACHN renal): 413 nM | TGI (ACHN renal): 1040 nM | GI50 (CCRF-CEM leukemia): 155 nM | TGI (CCRF-CEM leukemia): 1680 nM | GI50 (UACC-62 melanoma): 732 nM | TGI (UACC-62 melanoma): 1450 nM | GI50 (SW-620 colon): 250 nM | TGI (SW-620 colon): 891 nM | GI50 (NCI-H226 lung): 883 nM | TGI (NCI-H226 lung): 2620 nM | GI50 (NCI-H522 lung): 643 nM | TGI (NCI-H522 lung): 1730 nM | GI50 (NCI-H460 lung): 738 nM | TGI (NCI-H460 lung): 1580 nM | GI50 (SR leukemia): 170 nM | TGI (SR leukemia): 7800 nM | GI50 (OVCAR-3 ovarian): 281 nM | TGI (OVCAR-3 ovarian): 927 nM | GI50 (K-562 leukemia): 312 nM | TGI (K-562 leukemia): 13100 nM | GI50 (MOLT-4 leukemia): 557 nM | TGI (MOLT-4 leukemia): 2990 nM | GI50 (UACC-257 melanoma): 872 nM | TGI (UACC-257 melanoma): 1810 nM
